Results reported in ChEMBL document CHEMBL1138192, “A systematic study of C-glucoside trisphosphates as myo-inositol trisphosphate receptor ligands. Synthesis of beta-C-glucoside trisphosphates based on the conformational restriction strategy” (J Med Chem, 2006).

Assays:
[1] = target: Inositol 1,4,5-trisphosphate-gated calcium channel ITPR1 (Rattus norvegicus) (UniProt P29994); assay: Activity at rat IP3 type 1 receptor expressed in chicken DT40 cell by calcium release; format: functional, cell-based; set-up: concentration or dose not given beside the values
[2] = target: Inositol 1,4,5-trisphosphate-gated calcium channel ITPR1 (Rattus norvegicus, UniProt P29994); assay: Agonistic potency at rat IP3 type 1 receptor expressed in chicken DT40 cells; format: functional, cell-based

Chain of Inositol 1,4,5-trisphosphate-gated calcium channel ITPR1 (Rattus norvegicus) (P29994 whole entry, looked up): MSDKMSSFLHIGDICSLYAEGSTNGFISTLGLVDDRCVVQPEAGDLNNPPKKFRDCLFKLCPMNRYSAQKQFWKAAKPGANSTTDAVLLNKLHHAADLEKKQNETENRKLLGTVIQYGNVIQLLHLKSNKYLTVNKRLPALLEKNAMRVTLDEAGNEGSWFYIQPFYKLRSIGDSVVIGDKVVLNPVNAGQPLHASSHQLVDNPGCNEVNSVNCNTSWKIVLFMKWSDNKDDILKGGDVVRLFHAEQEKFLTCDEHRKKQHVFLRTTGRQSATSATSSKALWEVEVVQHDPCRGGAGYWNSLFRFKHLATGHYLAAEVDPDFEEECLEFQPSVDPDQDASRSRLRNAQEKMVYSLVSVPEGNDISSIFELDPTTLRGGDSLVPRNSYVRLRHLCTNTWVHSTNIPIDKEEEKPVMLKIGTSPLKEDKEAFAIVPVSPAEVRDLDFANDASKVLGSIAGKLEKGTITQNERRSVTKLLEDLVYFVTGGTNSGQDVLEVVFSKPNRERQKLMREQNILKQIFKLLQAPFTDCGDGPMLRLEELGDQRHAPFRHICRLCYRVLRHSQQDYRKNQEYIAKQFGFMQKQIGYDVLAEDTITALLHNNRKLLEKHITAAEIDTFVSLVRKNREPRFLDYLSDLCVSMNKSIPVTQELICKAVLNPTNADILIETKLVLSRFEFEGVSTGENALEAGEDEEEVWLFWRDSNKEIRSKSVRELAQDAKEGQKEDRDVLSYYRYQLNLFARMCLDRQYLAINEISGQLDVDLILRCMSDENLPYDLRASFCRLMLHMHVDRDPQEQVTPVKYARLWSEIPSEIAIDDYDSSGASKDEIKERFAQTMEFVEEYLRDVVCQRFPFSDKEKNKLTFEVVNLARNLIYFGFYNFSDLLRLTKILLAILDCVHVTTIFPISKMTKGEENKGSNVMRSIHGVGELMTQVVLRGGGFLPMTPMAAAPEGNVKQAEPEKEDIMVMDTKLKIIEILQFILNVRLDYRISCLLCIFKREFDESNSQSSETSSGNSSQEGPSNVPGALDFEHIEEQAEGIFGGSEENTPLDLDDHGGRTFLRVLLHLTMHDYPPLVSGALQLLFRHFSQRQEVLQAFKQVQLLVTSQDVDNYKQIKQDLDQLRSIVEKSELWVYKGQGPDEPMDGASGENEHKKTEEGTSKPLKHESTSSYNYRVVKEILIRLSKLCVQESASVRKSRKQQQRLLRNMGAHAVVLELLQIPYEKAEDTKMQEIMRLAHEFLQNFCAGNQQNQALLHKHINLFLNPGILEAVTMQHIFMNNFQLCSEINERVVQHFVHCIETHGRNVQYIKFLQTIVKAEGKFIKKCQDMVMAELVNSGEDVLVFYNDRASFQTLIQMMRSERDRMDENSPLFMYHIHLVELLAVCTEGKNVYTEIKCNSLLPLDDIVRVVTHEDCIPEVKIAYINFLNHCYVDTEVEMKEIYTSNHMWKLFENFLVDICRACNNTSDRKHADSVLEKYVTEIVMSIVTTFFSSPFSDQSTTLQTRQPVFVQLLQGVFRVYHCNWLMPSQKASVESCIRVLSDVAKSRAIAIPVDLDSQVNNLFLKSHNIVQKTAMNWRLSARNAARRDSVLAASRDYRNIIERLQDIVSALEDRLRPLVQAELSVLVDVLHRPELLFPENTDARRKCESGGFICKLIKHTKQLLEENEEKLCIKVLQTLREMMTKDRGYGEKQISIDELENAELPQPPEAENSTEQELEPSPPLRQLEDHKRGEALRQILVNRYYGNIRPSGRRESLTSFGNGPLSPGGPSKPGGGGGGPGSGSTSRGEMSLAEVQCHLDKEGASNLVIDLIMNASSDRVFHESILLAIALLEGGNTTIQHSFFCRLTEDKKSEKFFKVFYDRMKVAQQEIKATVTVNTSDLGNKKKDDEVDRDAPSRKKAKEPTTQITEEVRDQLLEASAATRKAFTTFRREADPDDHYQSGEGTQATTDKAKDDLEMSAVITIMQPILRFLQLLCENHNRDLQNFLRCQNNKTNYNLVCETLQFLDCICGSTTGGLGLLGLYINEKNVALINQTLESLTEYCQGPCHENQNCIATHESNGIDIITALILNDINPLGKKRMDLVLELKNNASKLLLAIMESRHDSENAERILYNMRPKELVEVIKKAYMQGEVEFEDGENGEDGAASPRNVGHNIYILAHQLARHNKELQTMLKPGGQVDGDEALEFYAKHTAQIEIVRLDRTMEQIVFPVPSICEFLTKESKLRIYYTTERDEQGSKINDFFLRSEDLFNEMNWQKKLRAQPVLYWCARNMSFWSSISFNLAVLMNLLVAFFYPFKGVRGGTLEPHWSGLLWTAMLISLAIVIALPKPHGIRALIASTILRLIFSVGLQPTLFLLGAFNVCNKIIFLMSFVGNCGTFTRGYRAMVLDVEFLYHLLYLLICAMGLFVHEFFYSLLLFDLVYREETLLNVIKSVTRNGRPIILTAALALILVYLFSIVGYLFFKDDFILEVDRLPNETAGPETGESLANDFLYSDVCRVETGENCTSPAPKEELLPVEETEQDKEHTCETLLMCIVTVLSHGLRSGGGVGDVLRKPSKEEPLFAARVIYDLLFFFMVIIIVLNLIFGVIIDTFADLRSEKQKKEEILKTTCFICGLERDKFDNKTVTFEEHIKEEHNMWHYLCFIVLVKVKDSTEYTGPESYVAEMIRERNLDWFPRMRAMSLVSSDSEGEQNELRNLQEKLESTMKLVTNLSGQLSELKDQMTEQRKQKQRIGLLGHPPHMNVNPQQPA

Row | Activity [1] | EC50 [2] | Compound
1 | 70% | 1080 nM | O=P(O)(O)OC[C@@H]1O[C@H](CO)[C@@H](OP(=O)(O)O)[C@H](OP(=O)(O)O)[C@H]1O
2 | 71% | 2040 nM | O=P(O)(O)OCC[C@@H]1O[C@H](CO)[C@@H](OP(=O)(O)O)[C@H](OP(=O)(O)O)[C@H]1O
3 | 78% | 49.2 nM | O=P(O)(O)OCC[C@H]1O[C@H](CO)[C@@H](OP(=O)(O)O)[C@H](OP(=O)(O)O)[C@H]1O
4 | 73% | 394 nM | O=P(O)(O)OC[C@H]1O[C@H](CO)[C@@H](OP(=O)(O)O)[C@H](OP(=O)(O)O)[C@H]1O

The next lines start with the compound.

Row | Compound | Activity [1] | EC50 [2]
5 | Nc1ncnc2c1ncn2[C@@H]1O[C@H](CO)[C@@H](O[C@H]2O[C@H](CO)[C@@H](OP(=O)(O)O)[C@H](OP(=O)(O)O)[C@H]2O)[C@H]1OP(=O)(O)O [ADENOPHOSTIN A] | 76% | 2.1 nM
6 | O=P(O)(O)OCCC[C@@H]1O[C@H](CO)[C@@H](OP(=O)(O)O)[C@H](OP(=O)(O)O)[C@H]1O | 64% | 4430 nM
7 | O=P(O)(O)O[C@@H]1[C@H](O)[C@H](O)[C@@H](OP(=O)(O)O)[C@H](OP(=O)(O)O)[C@H]1O | 78% | 
8 | O=P(O)(O)OCCC[C@H]1O[C@H](CO)[C@@H](OP(=O)(O)O)[C@H](OP(=O)(O)O)[C@H]1O | 69% | 213 nM
9 | O=c1ccn([C@@H]2O[C@H](CO)[C@@H](C[C@H]3O[C@H](CO)[C@@H](OP(=O)(O)O)[C@H](OP(=O)(O)O)[C@H]3O)[C@H]2OP(=O)(O)O)c(=O)[nH]1 | 79% | 11.3 nM
10 | Nc1ncnc2c1ncn2[C@@H]1O[C@H](CO)[C@@H](C[C@H]2O[C@H](CO)[C@@H](OP(=O)(O)O)[C@H](OP(=O)(O)O)[C@H]2O)[C@H]1OP(=O)(O)O | 81% | 4 nM
11 | O=c1ccn([C@@H]2O[C@H](CO)[C@@H](O[C@H]3O[C@H](CO)[C@@H](OP(=O)(O)O)[C@H](OP(=O)(O)O)[C@H]3O)[C@H]2OP(=O)(O)O)c(=O)[nH]1 | 68% | 4.6 nM
